Assay results from PubChem BioAssay AID2060894 (Molecular Pharmacology Branch, DTP, NCI, 2025).

Test system: K12877-001-R-J1-PDC complex spheroid viability
Experiment: Anticancer human tumor K12877-001-R-J1-PDC patient-derived lung adenocarcinoma cell line growth inhibition [RAS]
Settings: for IC50: curve of first compound; for viability, T/C: stronger effect = lower value
Outline: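 Tumour cells grown as complex spheroids with HUVEC endothelial cells and mesenchymal stem cells, treated with RAS pathway inhibitor combinations. Each agent spans half-log steps from near clinical Cmax, or 10 microM where Cmax is unknown.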

[1] = second compound 0.000949 µM, first compound 0.0316 µM
[2] = second compound 0.000949 µM, first compound 0.1 µM
[3] = second compound 0.000949 µM, first compound 0.316 µM
[4] = second compound 0.000949 µM, first compound 1 µM
[5] = second compound 0.003 µM, first compound 0.0316 µM
[6] = second compound 0.003 µM, first compound 0.1 µM
[7] = second compound 0.003 µM, first compound 0.316 µM
[8] = second compound 0.003 µM, first compound 1 µM
[9] = second compound 0.00949 µM, first compound 0.0316 µM
[10] = second compound 0.00949 µM, first compound 0.1 µM
[11] = second compound 0.00949 µM, first compound 0.316 µM
[12] = second compound 0.00949 µM, first compound 1 µM
[13] = second compound 0.03 µM, first compound 0.0316 µM
[14] = second compound 0.03 µM, first compound 0.1 µM
[15] = second compound 0.03 µM, first compound 0.316 µM
[16] = second compound 0.03 µM, first compound 1 µM
[17] = second compound 0.0949 µM, first compound 0.0316 µM
[18] = second compound 0.0949 µM, first compound 0.1 µM
[19] = second compound 0.0949 µM, first compound 0.316 µM
[20] = second compound 0.0949 µM, first compound 1 µM
[21] = second compound 0.3 µM, first compound 0.0316 µM
[22] = second compound 0.3 µM, first compound 0.1 µM
[23] = second compound 0.3 µM, first compound 0.316 µM
[24] = second compound 0.3 µM, first compound 1 µM
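Also: spheroids exposed to agents for one week before readout.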
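For viability, T/C in this document: tumour cells co-cultured with HUVEC and mesenchymal stem cells in spheroids.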

C=CC(=O)Nc1cc(Nc2nccc(-c3cn(C)c4ccccc34)n2)c(OC)cc1N(C)CCN(C)C + CCn1c(-c2cc(N3CCN(C)CC3)cnc2C(C)OC)c2c3cc(ccc31)-c1csc(n1)CC(NC(=O)C1CC1C)C(=O)N1CCCC(N1)C(=O)OCC(C)(C)C2
IC50 (second compound 0.000949 µM): > 1000 nM | IC50 (second compound 0.003 µM): > 1000 nM | IC50 (second compound 0.00949 µM): > 1000 nM | IC50 (second compound 0.03 µM): > 1000 nM | IC50 (second compound 0.0949 µM): > 1000 nM | IC50 (second compound 0.3 µM): > 1000 nM | viability, T/C (second compound 0.000949 µM, first compound 0.00316 µM): 90.8% | viability, T/C (second compound 0.000949 µM, first compound 0.01 µM): 69.3% | viability, T/C [1]: 83.4% | viability, T/C [2]: 78.9% | viability, T/C [3]: 82.4% | viability, T/C [4]: 71.3% | viability, T/C (second compound 0.003 µM, first compound 0.00316 µM): 73.7% | viability, T/C (second compound 0.003 µM, first compound 0.01 µM): 70.3% | viability, T/C [5]: 66.1% | viability, T/C [6]: 74.4% | viability, T/C [7]: 74.9% | viability, T/C [8]: 72% | viability, T/C (second compound 0.00949 µM, first compound 0.00316 µM): 82.9% | viability, T/C (second compound 0.00949 µM, first compound 0.01 µM): 71.4% | viability, T/C [9]: 69% | viability, T/C [10]: 69.6% | viability, T/C [11]: 63% | viability, T/C [12]: 73% | viability, T/C (second compound 0.03 µM, first compound 0.00316 µM): 89.3% | viability, T/C (second compound 0.03 µM, first compound 0.01 µM): 83.2% | viability, T/C [13]: 80.4% | viability, T/C [14]: 75.9% | viability, T/C [15]: 90.2% | viability, T/C [16]: 93.1% | viability, T/C (second compound 0.0949 µM, first compound 0.00316 µM): 106% | viability, T/C (second compound 0.0949 µM, first compound 0.01 µM): 104% | viability, T/C [17]: 125% | viability, T/C [18]: 97.7% | viability, T/C [19]: 87.7% | viability, T/C [20]: 84.7% | viability, T/C (second compound 0.3 µM, first compound 0.00316 µM): 90% | viability, T/C (second compound 0.3 µM, first compound 0.01 µM): 96.1% | viability, T/C [21]: 93% | viability, T/C [22]: 89.8% | viability, T/C [23]: 82.5% | viability, T/C [24]: 73.7%

CC(C)NCC(C(=O)N1CCN(c2ncnc3c2C(C)CC3O)CC1)c1ccc(Cl)cc1 (centres undefined) + CCn1c(-c2cc(N3CCN(C)CC3)cnc2C(C)OC)c2c3cc(ccc31)-c1csc(n1)CC(NC(=O)C1CC1C)C(=O)N1CCCC(N1)C(=O)OCC(C)(C)C2
IC50 (second compound 0.000949 µM): 7690 nM | IC50 (second compound 0.003 µM): 4360 nM | IC50 (second compound 0.00949 µM): 1910 nM | IC50 (second compound 0.03 µM): 1190 nM | IC50 (second compound 0.0949 µM): 717 nM | IC50 (second compound 0.3 µM): 360 nM | viability, T/C [1]: 91.9% | viability, T/C [2]: 90.3% | viability, T/C [3]: 80.9% | viability, T/C [4]: 104% | viability, T/C (second compound 0.000949 µM, first compound 3.16 µM): 69.3% | viability, T/C (second compound 0.000949 µM, first compound 10 µM): 44.3% | viability, T/C [5]: 73.9% | viability, T/C [6]: 82.8% | viability, T/C [7]: 78.3% | viability, T/C [8]: 88% | viability, T/C (second compound 0.003 µM, first compound 3.16 µM): 58% | viability, T/C (second compound 0.003 µM, first compound 10 µM): 29.3% | viability, T/C [9]: 60.9% | viability, T/C [10]: 74.3% | viability, T/C [11]: 74.4% | viability, T/C [12]: 74.9% | viability, T/C (second compound 0.00949 µM, first compound 3.16 µM): 33.4% | viability, T/C (second compound 0.00949 µM, first compound 10 µM): 19.6% | viability, T/C [13]: 101% | viability, T/C [14]: 103% | viability, T/C [15]: 94.2% | viability, T/C [16]: 52.9% | viability, T/C (second compound 0.03 µM, first compound 3.16 µM): 28.4% | viability, T/C (second compound 0.03 µM, first compound 10 µM): 17.1% | viability, T/C [17]: 106% | viability, T/C [18]: 104% | viability, T/C [19]: 75.8% | viability, T/C [20]: 39.5% | viability, T/C (second compound 0.0949 µM, first compound 3.16 µM): 18.8% | viability, T/C (second compound 0.0949 µM, first compound 10 µM): 12.7% | viability, T/C [21]: 101% | viability, T/C [22]: 78.6% | viability, T/C [23]: 55% | viability, T/C [24]: 27.2% | viability, T/C (second compound 0.3 µM, first compound 3.16 µM): 17.1% | viability, T/C (second compound 0.3 µM, first compound 10 µM): 10.9%
